# Test system: Hsp90
# Assay: Hsp90 client protein immunodetection assay (Her2 degradation, Hsp70 induction) in BT474 cells
# Type: cell-based, human
# Settings: 24 h
# Procedure: FIG. 9. A cell-based immunodetection assay was used to monitor Hsp90 client protein, Her2 protein degradation (A), and the induction of a heat shock response Hsp70 protein levels (B) in Her2-overexpressing BT474 cell line. The effects of 40 and geldanamycin were compared to vehicle (DMSO) after treatment with varying concentrations of the compounds for 24 h. Each measurement is an average of three independent experiments run in […].
# The classic method of following the cellular activity of Hsp90 inhibitors is through the proteasome-dependent degradation of Hsp90 client proteins. […] Another hallmark of Hsp90 inhibition is the induction of a heat shock response, which was evaluated by determining the Hsp70 protein levels by […]. […] The plates were read immediately on a luminometer (Clarity™ luminescence microplate reader). Readings from wells containing only control IgG and the corresponding horseradish peroxidase-linked secondary antibody were set as background and subtracted from all measured values. The average chemiluminescence signals obtained were expressed as a percentage of Her2 reduction or Hsp70 induction in comparison to vehicle (DMSO). Values were calculated from three independent experiments performed in triplicate.
smiles,measurement,value
COC1=C2CCCCCCCCCCCCCCCNC(=CC1=O)C2=O [Compound 40],Hsp90 inhibition judged by client proteins Her2 and Hsp70 (in words),did not inhibit Hsp90

# From patent US9957214B2, “Multifunctional radical quenchers” (ARIZONA BOARD OF REGENTS ON BEHALF OF ARIZONA STATE …, priority 2012, dated 2018)
